Residues, ends and D or L forms follow the SMILES beside them.
Assays:
[1] = tested on: Gram-positive bacteria (Staphylococcus aureus); type: cell-based; details: for Antimicrobial Activities (MIC) S. aureus: Gram-positive bacteria, 24 h
Description: (§1) Regarding the antimicrobial peptides (samples 1 to 12) and the peptide of comparative sample 1 related to the present invention, their antimicrobial activities (minimum inhibitory concentration: MIC) against Gram-negative bacteria (Escherichia coli) and Gram-positive bacteria (Staphylococcus aureus) were determined, as described below, by liquid medium dilution method using a 96-well microplate. […] The prepared liquid broth media containing the peptide at each concentration described above were then loaded onto 96-well microplates in 100-μL aliquots. At the same time, the tested bacteria cultured for 18 hours at 37° C. on an agar plate (“Muller Hinton Agar” manufactured by DIFCO) were collected by scraping with a loop, and then suspended in sterilized physiological saline. 5 μL of bacterial suspension prepared to be equivalent to 2×10^7 cells/mL was inoculated (number of bacteria to be tested: approximately 1×10^6 cells/mL) into each well of the above-described microplate filled with the liquid broth media containing the peptide at each concentration. After inoculation, the microplate was then incubated in an incubator at 37° C., and the presence of bacteria was evaluated based on the turbidity after 24 hours. The minimum drug concentration (polypeptide concentration), at which no increase in bacterial turbidity was detected at the time of measurement, was defined as MIC (minimum inhibitory concentration) (unit: μM) in the present embodiment.

[2] = tested on: Gram-negative bacteria (Escherichia coli); type: cell-based; details: for Antimicrobial Activities (MIC) E. coli: Gram-negative bacteria, 24 h
Description: as §1

Compound	Antimicrobial Activities (MIC) S. aureus [1] [µM]	Antimicrobial Activities (MIC) E. coli [2] [µM]	antimicrobial activity (in words), E. coli ([2]; summary of Table 2)	antimicrobial activity (in words), S. aureus ([1]; summary of Table 2)
CC[C@H](C)[C@H](NC(=O)[C@H](Cc1ccc(O)cc1)NC(=O)[C@H](CCC(N)=O)NC(=O)[C@H](CC(C)C)NC(=O)[C@@H](N)CO)C(=O)N[C@@H](CS)C(=O)N[C@@H](CCCNC(=N)N)C(=O)N[C@@H](C)C(=O)N[C@H](C(=O)N[C@H](C(=O)N[C@@H](CS)C(=O)N[C@@H](CCCNC(=N)N)C(=O)N[C@@H](CS)C(=O)N[C@H](C(=O)N[C@H](C(N)=O)[C@@H](C)O)[C@@H](C)O)[C@@H](C)CC)C(C)C [Sample 8, SLQYICRAVICRCTT] (H-SLQYICRAVICRCTT-NH2)	50	–	–	–
H-TLHQQCIRVLKNNID-NH2 [Comparative Sample 1, TLHQQCIRVLKNNID, reference compound]	>200	>200	no antimicrobial activity was detected	no antimicrobial activity was detected
H-SLQHLCRFRIRQLVR-NH2 [Sample 9, SLQHLCRFRIRQLVR]	12.5	–	–	–
H-SLTHLCRLEIRSSIK-NH2 [Sample 12, SLTHLCRLEIRSSIK]	25	–	–	–
CC[C@H](C)[C@H](NC(=O)[C@H](Cc1c[nH]cn1)NC(=O)[C@H](CCC(N)=O)NC(=O)[C@H](CC(C)C)NC(=O)[C@@H](N)CO)C(=O)N[C@@H](CS)C(=O)N[C@@H](CCCNC(=N)N)C(=O)N[C@H](C(=O)N[C@H](C(=O)N[C@H](C(=O)N[C@@H](CS)C(=O)N[C@@H](CC(N)=O)C(=O)N[C@@H](CS)C(=O)N[C@H](C(=O)N[C@H](C(N)=O)[C@@H](C)O)[C@@H](C)O)[C@@H](C)CC)C(C)C)[C@@H](C)O [Sample 7, SLQHICRTVICNCTT] (H-SLQHICRTVICNCTT-NH2)	50	–	–	–
H-SLKHLCRKALRSFLT-NH2 [Sample 10, SLKHLCRKALRSFLT]	12.5	–	–	–
H-SLQYLCRFVIRQYTR-NH2 [Sample 2, SLQYLCRFVIRQYTR]	6.25	25	–	–
H-TLLSLCRVAVRRALG-NH2 [Sample 4, TLLSLCRVAVRRALG]	1.56	6.25	–	–
H-PLAHLCRLRVRKAIG-NH2 [Sample 11, PLAHLCRLRVRKAIG]	12.5	–	–	–
H-SLQHICRMSIRRVMS-NH2 [Sample 3, SLQHICRMSIRRVMS]	6.25	12.5	–	–
H-TLKKRCLQVVRKLVK-NH2 [Sample 5, TLKKRCLQVVRKLVK]	3.13	3.13	–	–
CC(C)C[C@H](NC(=O)[C@H](CS)NC(=O)[C@H](CCCNC(=N)N)NC(=O)[C@H](CCC(=O)O)NC(=O)[C@H](CCCCN)NC(=O)[C@H](CC(C)C)NC(=O)[C@@H](N)[C@@H](C)O)C(=O)N[C@@H](CCC(N)=O)C(=O)N[C@H](C(=O)N[C@H](C(=O)N[C@@H](CCCNC(=N)N)C(=O)N[C@@H](CO)C(=O)N[C@@H](CC(C)C)C(=O)N[C@H](C(=O)N[C@@H](CCCCN)C(N)=O)C(C)C)C(C)C)C(C)C [Sample 1, TLKERCLQVVRSLVK]	3.13	6.25	–	–
H-TLQHLCRKTVNGHLD-NH2 [Sample 6, TLQHLCRKTVNGHLD]	50	–	–	–

— patent US20090030179A1, “ANTIMICROBIAL PEPTIDE AND USE THEREOF” (TOAGOSEI CO., LTD, priority 2005, published 2009)
